From paper PMC3790966, “Honokiol: A non-adipogenic PPARγ agonist from nature^” (Biochimica et Biophysica Acta, 2013)

Assays:
PPARα = molecular target: T1, PPARα (Homo sapiens, UniProt Q07869); assay: LBD binding (data not shown), three to four-fold higher concentrations than for PPARγ
T1 construct: gene PPARA; LBD
T1 sequence (Q07869 196-468 limits assumed): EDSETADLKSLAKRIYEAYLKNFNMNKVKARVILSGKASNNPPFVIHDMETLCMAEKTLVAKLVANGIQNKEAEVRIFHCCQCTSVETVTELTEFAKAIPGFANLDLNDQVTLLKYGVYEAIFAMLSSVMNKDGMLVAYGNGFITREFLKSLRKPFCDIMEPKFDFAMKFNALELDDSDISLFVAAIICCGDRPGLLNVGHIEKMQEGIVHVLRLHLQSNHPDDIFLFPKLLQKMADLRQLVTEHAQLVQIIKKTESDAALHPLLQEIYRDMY

PPARγ = molecular target: T2, PPARγ (Homo sapiens, UniProt P37231); assay: LanthaScreen TR-FRET competitive binding assay with purified LBD; supported by luciferase transactivation (partial agonist, EC50 […])
T2 construct: gene PPARG
T2 sequence (P37231 231-505 limits assumed): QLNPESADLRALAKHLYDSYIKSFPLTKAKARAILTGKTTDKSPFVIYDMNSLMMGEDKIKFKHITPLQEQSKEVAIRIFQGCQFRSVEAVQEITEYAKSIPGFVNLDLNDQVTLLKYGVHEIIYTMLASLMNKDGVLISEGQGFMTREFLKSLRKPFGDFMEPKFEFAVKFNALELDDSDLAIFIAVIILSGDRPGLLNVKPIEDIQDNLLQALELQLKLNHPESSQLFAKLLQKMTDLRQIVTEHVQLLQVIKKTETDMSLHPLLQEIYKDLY

PPARβ/δ = molecular target: T3, PPARβ/δ (Homo sapiens, UniProt Q03181); assay: LBD binding (data not shown), three to four-fold higher concentrations than for PPARγ
T3 construct: gene PPARD; LBD
T3 sequence (Q03181 171-441 limits assumed): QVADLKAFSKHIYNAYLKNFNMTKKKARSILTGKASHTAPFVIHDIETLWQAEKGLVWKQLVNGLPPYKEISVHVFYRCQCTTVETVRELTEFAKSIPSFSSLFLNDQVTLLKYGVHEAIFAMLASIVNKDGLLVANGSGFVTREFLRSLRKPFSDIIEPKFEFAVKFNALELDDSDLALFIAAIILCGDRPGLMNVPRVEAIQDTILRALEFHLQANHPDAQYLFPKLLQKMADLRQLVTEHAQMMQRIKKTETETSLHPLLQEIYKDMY

C=CCc1ccc(O)c(-c2ccc(O)c(CC=C)c2)c1 [honokiol]
LBD binding (data not shown), three to four-fold higher concentrations than for (PPARα): Honokiol also bound to the LBDs of PPARα and PPARβ/δ but only at considerably (three to four-fold) higher concentrations
Ki (PPARγ): 22.9 µM
LBD binding (data not shown), three to four-fold higher concentrations than for (PPARβ/δ): Honokiol also bound to the LBDs of PPARα and PPARβ/δ but only at considerably (three to four-fold) higher concentrations
